Measured values taken from publication PMC5045383 (Oncotarget, 2016).

What was measured:
MOLM-13 (FLT3-ITD/wt) = test: Cell proliferation assay (CellTiter-Glo); format: cell-based, human
Procedure: (§1) The human AML cell lines MV4-11, U937, OCI-AML-3 were purchased from the American Type Culture Collection (ATCC) (Manassas, VA, USA). The FLT3-ITD-expressing lines, MOLM-13, MOLM-14, were provided by Dr. Scott Armstrong, Dana Farber Cancer Institute (DFCI), Boston, MA. The wt FLT3-expressing AML line, NB4 (KRAS A18D), was obtained from Dr. Gary Gilliland. […] MV4-11 was cultured in IDMEM media (Corning, USA) with 10% FBS and supplemented with 2% L-glutamine and 1% penicillin/streptomycin. OCI-AML-3 was cultured in α-MEM media (Corning, USA) with 10% FBS and supplemented with 2% L-glutamine and 1% penicillin/streptomycin. All cell lines were maintained in culture media at 37°C with 5% CO2.
(§2) Cells were grown in 96-well culture plates (3000/well). […] Cell proliferation was determined after 72 hours drug treatment. […] Cell viability was measured with the CellTiter–Glo assay (Promega, USA), according to the manufacturer's instructions, and luminescence was measured in a multi-label reader (Envision, PerkinElmer, USA). […] GI50 values were calculated using Prism 5.0 (GraphPad Software, San Diego, CA).

U937 (FLT3-wt) = test: Cell proliferation assay (CellTiter-Glo); format: cell-based, human; conditions: 72 hours
Procedure: as §1, §2

NB4 (FLT3-wt) = test: Cell proliferation assay (CellTiter-Glo); format: cell-based, human; conditions: 72 hours
Procedure: as §1, §2

MOLM-14 (FLT3-ITD/wt) = test: Cell proliferation assay (CellTiter-Glo); format: cell-based, human
Procedure: as §1, §2

MV4-11 (FLT3-ITD) = test: Cell proliferation assay (CellTiter-Glo); format: cell-based, human
Procedure: as §1, §2

OCI-AML-3 (FLT3-wt) = test: Cell proliferation assay (CellTiter-Glo); format: cell-based, human; conditions: 72 hours
Procedure: as §1, §2

PF-382 (FLT3-wt) = test: cells; format: cell-based; conditions: 72 hours
Procedure: as §2

FLT3-ITD-F691L = test: Auto-phosphorylation of FLT3 in transformed BaF3 isogenic cells; format: cell-based
Text: (§3) The following antibodies were purchased from Cell Signaling Technology (Danvers, MA): FLT3 (8F2) Rabbit mAb (#3462), Phospho-FLT3 (Tyr589/591) (30D4) Rabbit mAb (#3464), NF-κB p65 (D14E12) XP® Rabbit mAb (#8242), Phospho-NF-κB p65 (Ser536) (93H1) Rabbit mAb (#3033), Stat5 Antibody (#9363), Phospho-Stat5 (Tyr694) (C71E5) Rabbit mAb (#9314), c-Myc (D84C12) XP® Rabbit mAb (#5605), Akt (pan) (C67E7) Rabbit mAb (#4691), Phospho-Akt (Thr308) (244F9) Rabbit mAb (#4056), Phospho-Akt (Ser473) (D9E) XP® Rabbit mAb (#4060), p44/42 MAPK (Erk1/2) (137F5) Rabbit mAb (#4695), Phospho-p44/42 MAPK (Erk1/2) (Thr202/Tyr204) (D13.14.4E) XP® Rabbit mAb (#4370), GAPDH (D16H11) XP® Rabbit mAb, PARP (46D11) rabbit mAb (#9532), Caspase-3 (8G10) rabbit mAb (#9665), GSK-3β (27C10) Rabbit mAb (#9315), Phospho-GSK-3β (Ser9) (5B3) Rabbit mAb (#9323), FoxO1 (C29H4) Rabbit mAb (#2880), Phospho-FoxO1 (Thr24)/FoxO3a (Thr32)/FoxO4 (Thr28) (4G6) Rabbit mAb (#2599), PRAS40 (D23C7) XP® Rabbit mAb (#2691), Phospho-PRAS40 (Thr246) (C77D7) Rabbit mAb (#2997), 4E-BP1 (#9644), 4E-BP1 (53H11) Rabbit mAb (#9644), p70 S6 Kinase (49D7) Rabbit mAb (#2708), Phospho-p70 S6 Kinase (Thr389) (108D2) Rabbit mAb (#9234). Antibodies were used at 1:1000. Protein lysate preparation and immunoblotting were carried out as previously described.
(§4) Retroviral constructs for BaF3-FLT3 mutants were made based on the pMSCVpuro (Clontech) backbone. For TEL-FLT3 vector, the first 1 kb of human TEL gene with an artificial myristoylation sequence ([…]) was cloned into pMSCVpuro retroviral vector, followed by a 3xFLAG tag sequence and a stop codon. Then the kinase domain coding sequence of FLT3 was inserted in-frame between TEL and 3× FLAG sequences. For full-length expression vectors, the coding sequences of FLT3 variants were directly cloned in pMSCVpuro vector with a 3X FLAG tag at the C-terminal end. All mutagenesis studies were performed using the QuikChange Site-Directed Mutagenesis Kit (Stratagene) following the manufacturer's instructions. […]

FLT3-ITD = test: as above; format: cell-based
Text: as §3, §4

FLT3-ITD-D835Y = test: as above; format: cell-based
Text: as §3, §4

**Q.** What does the source list for `Cc1[nH]nc2ccc(-c3cncc(OC[C@@H](N)Cc4ccccc4)c3)cc12` [A674563]?
**A.** GI50 (MOLM-13 (FLT3-ITD/wt); MOLM-13 (FLT3-ITD/wt), 72 hours, Table 1): 60 nM; GI50 (MOLM-13 (FLT3-ITD/wt); MOLM-13+FL(1 ng/mL)): 61 nM; GI50 (MOLM-13 (FLT3-ITD/wt); MOLM-13+FL(5 ng/mL)): 58 nM; GI50 (MOLM-13 (FLT3-ITD/wt); MOLM-13+FL(10 ng/mL)): 59 nM; GI50 (MOLM-13 (FLT3-ITD/wt); MOLM-13, no FLT3 ligand, Table 3): 60 nM; GI50 (U937 (FLT3-wt)): 520 nM; GI50 (NB4 (FLT3-wt)): 480 nM; GI50 (MOLM-14 (FLT3-ITD/wt); MOLM-14 (FLT3-ITD/wt), 72 hours, Table 1): 180 nM; GI50 (MOLM-14 (FLT3-ITD/wt); MOLM-14+FL(1 ng/mL)): 210 nM; GI50 (MOLM-14 (FLT3-ITD/wt); MOLM-14+FL(5 ng/mL)): 190 nM; GI50 (MOLM-14 (FLT3-ITD/wt); MOLM-14+FL(10 ng/mL)): 180 nM; GI50 (MOLM-14 (FLT3-ITD/wt); MOLM-14, no FLT3 ligand, Table 3): 180 nM; GI50 (MV4-11 (FLT3-ITD); MV4-11 (FLT3-ITD), 72 hours, Table 1): 75 nM; GI50 (MV4-11 (FLT3-ITD); MV4-11+FL(10 ng/mL)): 78 nM; GI50 (MV4-11 (FLT3-ITD); MV4-11, no FLT3 ligand, Table 3): 75 nM; GI50 (OCI-AML-3 (FLT3-wt)): 670 nM; GI50 (PF-382 (FLT3-wt)): 2700 nM; EC50 (FLT3-ITD-F691L): 400 nM; EC50 (FLT3-ITD): 85 nM; EC50 (FLT3-ITD-D835Y): 1260 nM
